# From US20230331707A1, “PROGRAMMED CELL NECROSIS INHIBITOR, PREPARATION METHOD THEREFOR, AND USE THEREOF” (Shanghai Institute of Organic Chemistry, Chinese Academy of …, priority 2020, published 2023)
# pIC50: −log10 of the molar value.
# Tests used:
# [1] = Pharmacokinetic properties in mice; type: in vivo
# Experimental: The adopted biological test protocol was: drug metabolism test of the compound on the mouse in vivo.
# In order to verify the […], a representative compound QY-10-40 was selected and the pharmacokinetic properties of the compound in mice (n=3) were tested using single administration by gavage (PO, 10 mg/kg) or intravenous injection (IV, 1 mg/kg).
# [2] = Liver microsomal stability test, mouse; type: in vitro ADME
# Description: The adopted biological test protocol was: testing the half-life of the compound in human- or mouse-derived liver microsomes.
# Liver microsomes contain many enzymes involved in drug metabolism, especially cytochrome P-450, and therefore it is one of the major tissues involved in drug metabolism in living organisms. There are some correlations between the stability of the compound in liver microsomes and the pharmacogenetic stability thereof in vivo. Therefore, the relative stability of compounds in vivo can be roughly predicted by testing the half-life of different compounds in human- or mouse-derived liver microsomes. The specific methods were as follows:
# Methods: 0.75 μL of 0.5 mM samples (compounds to be tested and control verapamil), 9.38 μL of 20 mg/mL liver microsomes (Human and Mouse) were taken and added to 239.88 μL PBS (on ice), and divided into 30 μL/tube samples respectively. The samples were incubated at 37° C. in a constant temperature water bath for 5 min, and then all samples were taken out. At zero-time, control group was added with 90 μL of ice acetonitrile first, and then added with 15 μL of 3 mM NADPH solution sequentially, and incubated at 37° C. in a constant temperature water bath. The corresponding samples were taken out after 5 min, 10 min, 20 min, 30 min and 60 min, respectively, and quenched by adding 90 μL of ice acetonitrile. All samples were centrifuged at 10000 rpm for 10 min, and the supernatants were taken and placed in a liquid phase vial waiting for LC-MS analysis.
# [3] = test system: MEFs cells expressing RIPK1 WT; assay: TSZ-induced programmed necrosis in MEFs cells expressing RIPK1 WT; type: cell-based, mouse; conditions: 600 nM
# Description: The adopted biological test protocol was: the effect of compounds on programmed necrosis in MEFs cells (mouse embryonic fibroblasts) with RIPK1 S161E mutation.
# In order to verify the inhibitory effect of the compound of the present invention on the highly activated RIPK1 kinase at the cellular level, MEFs cells stably expressing RIPK1 S161E (simulating the activation state of RIPK1 after phosphorylation) were selected, TNFα-SM164-zVAD (Caspase inhibitor for inhibiting apoptosis) (TSZ) was used in combination to induce programmed cell necrosis, and cell viability was calculated by detecting chemiluminescence values, thereby obtaining the biological activity of the compound in inhibiting programmed necrosis.
# Methods: MEFs cells replenished by RIPK1: WT-RIPK1, S161A-RIPK1 and S161E-RIPK1 were replenished in RIPK1 stable knockout cells respectively. After stable expression and being cultured to logarithmic growth phase, the cells were collected, and centrifuged at 1000 rpm for 5 min. The supernatant was discarded. Cell concentration was adjusted to 5×10^4/mL, and cells were inoculated into 384-well plates with 40 μL per well. Cell culture medium diluted SM164 (100 nM), zVAD (50 μM) and compound, each […], were added to the corresponding wells. After pretreatment at 37° C. for 1 h, 5 μL of cell culture medium diluted TNF (50 ng/mL) was added to each well in the stimulated group and 5 μL of culture medium was added to the control group. […] The unstimulated DMSO control wells (Ctrl) were taken as 100% cell viability. EC50 values of the compounds were calculated using Prism Graphpad statistical software.
# [4] = test system: TNFα-induced systemic inflammatory response syndrome; assay: TNFα-induced systemic inflammatory response syndrome in mice; type: in vivo; conditions: gavage 2 mg/kg, 20 min before TNFα tail vein injection
# Experimental: The adopted biological test scheme was: Tail vein injection of tumor necrosis factor TNFα would lead to the occurrence of systemic inflammatory response syndrome in mice, resulting in decreased body temperature and death. The effect of representative compound QY-10-40 on TNFα-induced systemic inflammatory response syndrome was tested, and the change in body temperature and death of mice were monitored.
# Systemic inflammatory response syndrome, also known as inflammatory storm, refers to a systemic non-specific inflammatory response caused by infectious or non-infectious injuries such as severe infection, multiple trauma, burns, ischemia reperfusion, and acute pancreatitis. Under this condition, large amounts of inflammatory factors will release, in severe cases organism will loss the control of inflammatory response, resulting in multi-organ failure and even death.
# Methods: The compounds to be tested were dissolved in 0.5% carboxymethyl cellulose according to the required concentration one day in advance, and sonicated overnight. Each mouse was gavaged with 200 μl. 20 min later, […] was injected through the tail vein. Body temperature changes of mice were monitored by infrared thermometer after injection. The effects of the compounds were calculated using Prism Graphpad statistical software.
# RIPK1(1-330) protein = target: T1, RIPK1(1-330) protein (Homo sapiens, UniProt Q13546); assay: RIPK1(1-330) kinase activity (ADP-Glo); type: biochemical; conditions: read-out: effective semi-inhibitory concentration on RIPK1 kinase
# T1 construct: testing the effect of compound QY-10-40 on the kinase activity of RIPK1(1-330) protein; made in house
# T1 sequence (Q13546 1-330): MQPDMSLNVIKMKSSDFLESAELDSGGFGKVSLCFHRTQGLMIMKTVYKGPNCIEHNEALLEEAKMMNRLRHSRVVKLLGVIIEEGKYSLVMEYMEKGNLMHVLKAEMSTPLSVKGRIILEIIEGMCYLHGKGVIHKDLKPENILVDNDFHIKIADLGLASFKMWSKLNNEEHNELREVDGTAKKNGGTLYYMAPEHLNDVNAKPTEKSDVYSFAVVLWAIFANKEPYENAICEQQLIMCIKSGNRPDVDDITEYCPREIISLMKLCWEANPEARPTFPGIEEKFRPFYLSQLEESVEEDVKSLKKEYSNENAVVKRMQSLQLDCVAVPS
# Experimental: Methods: RIPK1 (1-330) protein with a final concentration of 2 μM and ATP (IX kinase buffer) with a corresponding concentration, final concentration of 5 μL, were added to the 384-well plate, respectively. Each group at least set up triplicate wells and reacted for 2 h at 37° C. 5 μL ADP-Glo reagent was added, which was used to stop kinase reaction and remove residual ATP in reaction system. The plates was placed at room temperature for 40 min. 10 μL kinase detection reagent was added, which was used to convert ADP into ATP and introduce luciferase and luciferin for ATP detection into the system. The reaction was carried out at room temperature for 1 h. 7500 Fast Real-Time PCR System was used to detect luminescence. The IC50 of the compounds inhibiting the kinase reaction was calculated using Prism Graphpad statistical software.
# [5] = test system: RIPK1^K612R/K612R mutant mice; assay: Digestive system inflammation in RIPK1 K612R/K612R mutant mice; type: in vivo; conditions: gavage 25 mg/kg, control Nec-1s 50 mg/kg
# Description: The adopted biological test scheme was: RIPK1^K612R/K612R mutant mice were used as model mice to test the effect of representative compound QY-10-40 or QY-13-19 on spontaneous intestinal inflammation.
# K612R mutation leads to decreased in intracellular RIPK1 level but abnormal activation, making it sensitive to programmed necrosis and caspase-1 activation, and responding to TLRs signaling. RIPK1^K612R/K612R mice will appear responses such as age-dependent reduced RIPK1 expression and abnormal activation, spontaneous intestinal inflammation and splenomegaly.
# Methods: The compounds to be tested were dissolved in 0.5% carboxymethyl cellulose according to the required concentration one day in advance, and sonicated overnight. Mice were gavaged in a volume of 0.1 ml/10 g body weight. Body weight was measured three times a week, and samples were collected at the end of the experiment. The effect of the compounds was calculated using Prism Graphpad statistical software.
structure (smiles),measurement,setting,value
Cn1ncc(C(=O)NCc2ccc(-n3cnc4c(N)ncnc43)cc2)c1Cc1ccccc1 [QY-10-40],bioavailability (F) (in words),"[1]; PO 10 mg/kg, IV 1 mg/kg",better bioavailability
same,half-life (T1/2) (in words),"[1]; PO 10 mg/kg, IV 1 mg/kg",better
same,blood concentrations for most of the time within 24 h,"[1]; gavage 10 mg/kg, single dose, 10 nM = effective inhibitory concentration",> 10 nM
same,time to peak (in words),[1]; single dose (PO 10 mg/kg or IV 1 mg/kg),rapidly reach the peak
same,stability in liver microsomes (in words),[2]; mouse derived liver microsomes,good stability
same,T1/2 (min) Mouse,"[2]; mouse liver microsomes, NADPH, 37° C.",69.3 min
same,inhibition of programmed necrosis,[3],can effectively inhibit the occurrence of programmed necrosis
same,"effect on TNFα-induced hypothermia, inflammation response and death",[4],"effectively resists against TNFα-induced hypothermia, inflammation response and death"
same,pIC50,RIPK1(1-330) protein,6.66
same,effect on body weight and spleen coefficient,[5],can inhibit the effect of the digestive system inflammation
